Results on 51 compounds are retold here after PubChem BioAssay AID179 (DTP/NCI, 2004).

Molecules are shown by their SMILES. Calls of active or inactive are those of the source.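 Rule for the calls: active = compounds giving half or more protection of infected cells from virus-caused growth loss, again on retest; inactive = the rest.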 Some results are limits rather than exact numbers.

The subject of the experiment is CEM cells HIV-1 protection, formazan growth assay. The experiment in a line: NCI AIDS Antiviral Assay. Conditions: for IC50: measured here: growth of uninfected CEM cells. An outline of the steps:
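Protection of CEM cells against HIV-1 measured as cell growth via soluble formazan read-out, with five concentrations tested on both infected and uninfected cells; failure to protect may reflect toxicity.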

In the case of `CCC/C(=N/NC(=O)C(N)=O)C(CC)C(=O)CCC(=O)N(Cc1ccccc1)Cc1ccccc1` (configuration not stated), the EC50 was over 525 µM and the IC50 was over 525 µM.

Turning to `O=[N+]([O-])/C=C1\COCc2cc3c(cc21)OCO3`, the EC50 is over 200 µM and the IC50 was determined as 28.8 µM.

For `CC1(C)[C@@H]2C[C@H]1c1cnc(-c3ccccn3)cc1[C@H]2C(O)[C@@H]1c2cc(-c3ccccn3)ncc2[C@H]2C[C@@H]1C2(C)C` (some centres not stated), the EC50 was over 5.01 µM and the IC50 was 0.295 µM.

On to `OCC1(CO)CSSC1`, for which the concentration giving a half-maximal response (EC50) is 132 µM and the IC50 amounted to 1510 µM.

As for `COC(=O)C(=O)Nc1cc2c3c(c1)Oc1cccc4c1C3(C)c1c(cccc1O2)O4`, the EC50 was 28.2 µM and the IC50 was 126 µM.

Take `CC(C)(C)C1=CC(=Nc2c([N+](=O)[O-])cc([N+](=O)[O-])cc2[N+](=O)[O-])C=C(C(C)(C)C)C1=O`: the EC50 was over 11.5 µM and the IC50 was over 11.5 µM.

With `CCCCC(=O)N1C(=O)/C(=C\N(C)C)c2cc(C=O)ccc21`, the EC50 was over 200 µM and the IC50 was determined as 29.5 µM.

With `COc1ccc(C(c2ccccc2)(c2ccc(OC)cc2)N2C(=O)NC3C(CCCCC(=O)NCCCCCCOP(OCCC#N)N(C(C)C)C(C)C)SCC32)cc1` (configuration not stated), the EC50 was over 4.47 µM and the IC50 was over 4.47 µM.

Take `O=C(O)c1ccc(O)c(N=Nc2cc(S(=O)(=O)O)c3ccccc3c2O)c1`: the EC50 is over 25.7 µM and the IC50 was over 25.7 µM.

With `O=C(C1OC1c1cccc([N+](=O)[O-])c1)C12CC3CC(CC(C3)C1)C2` (configuration not stated), the EC50 was over 200 µM and the IC50 worked out at 3.47 µM.

For the compound `CN(C)c1ccc(/C=C(\NC(=O)c2ccccc2)c2nc3ncncc3[nH]2)cc1`, the result was inactive.

On to `c1ccc(N2N=NC3C4CC(C5CCCC54)C32)cc1` (configuration not stated), for which the EC50 is over 200 µM and the IC50 is over 100 µM.

`CC(C)(C)OC(=O)NC1CCC[C@H]1O` (some centres not stated): the result was inactive.

With `CC(C)=C=CC(C)(C)NS(=O)(=O)NC(C)(C)C=C=C(C)C`, the EC50 is over 200 µM and the IC50 stood at 105 µM.

For the compound `O=C(Nc1ccccc1)c1cc2cc(N=Nc3ccc(Br)cc3)ccc2oc1=O`, the outcome was inactive.

As for `N=c1nc(N)nc2c3ccccc3nnn12`, the EC50 was over 24.5 µM and the IC50 is over 24.5 µM.

With `C[C@]12CC[C@H](OC3OC(CO)C(O)C(O)C3O)C[C@H]1CC[C@@H]1[C@@H]2CC[C@]2(C)[C@@H](C3=CCOC3=O)CC[C@]12O` (some centres not stated), the EC50 was over 100 µM and the IC50 is 0.0661 µM.

As to `Cc1ccc(C(=O)/C=C2/SS/C(=C/C(=O)c3ccc(C)cc3)S2)cc1`, the EC50 was over 200 µM and the IC50 was over 200 µM.

Regarding `COc1ccc([C@H]2C=[N+]([O-])O[C@H](OC3CCCC3)[C@@H]2OC(C)=O)cc1OC`, the EC50 is over 200 µM and the IC50 worked out at 11.2 µM.

As for `Cn1c(-c2ccc(/C=N/NC(=S)N/N=C/c3ccc(-c4c[n+]5ccsc5n4C)cc3)cc2)c[n+]2ccsc12`, the EC50 is over 200 µM and the IC50 came to 117 µM.

`O=c1[nH]c(N/N=C\C(O)C(O)C(O)C(O)CO)nc2ccccc12` (configuration not stated): the EC50 was over 200 µM and the IC50 was over 200 µM.

In the case of `COC1(OC)C2(Cl)C(Cl)=C(Cl)C1(Cl)C1c3ccc(C(C)=O)c4cccc(c34)C12` (configuration not stated), the outcome was inactive.

`N#C/C(=C(/c1ccccc1)c1ccccn1)c1ccc(Cl)cc1`: the EC50 is over 2 µM and the IC50 is 1 µM.

With `Cc1ccc(NC(=O)/C(=N/N(C)C)C(C2OC(=O)c3ccccc32)[N+](=O)[O-])cc1` (configuration not stated), the EC50 is over 47.9 µM and the IC50 is over 47.9 µM.

On to `S=c1[nH]c2ccccc2c(=S)n1CN1CCCCC1`, for which the EC50 was over 200 µM and the IC50 came out at 110 µM.

With `Cc1ccc(-n2[nH]nc(C(N)=O)c2=O)cc1`, the EC50 was over 200 µM and the IC50 is over 200 µM.

In the case of `CCC1=CC2CN3CCc4c([nH]c5ccccc45)C(C(=O)OC)(C2)C13` (configuration not stated), the outcome was inactive.

For `CCCCCSCCCCCCCC(=O)O`, the EC50 is over 200 µM and the IC50 came out at 58.9 µM.

Regarding `N#Cc1cc2ccccc2nc1SN`, the outcome was inactive.

For `N#Cc1c(-c2ccccc2)[nH]c(=O)n(C2OC(CO)C(O)C(O)C2O)c1=O` (configuration not stated), the EC50 was over 200 µM, the result was inactive and the half-maximal inhibitory concentration (IC50) is over 200 µM.

Take `CCCCOC(=O)C(=O)/C(=C\n1c(=S)[nH]c2cc(C)ccc21)C(=O)C=C(C)C`: the EC50 was over 200 µM and the IC50 is over 200 µM.

In the case of `O=c1c2cc(Br)ccc2n(C2OC(CO)C(O)C(O)C2O)c(=S)n1-c1ccccc1` (configuration not stated), the EC50 is over 52.5 µM and the IC50 was over 52.5 µM.

`Cc1cc(=O)n2nc(CSc3nnc(Sc4cc(O)ccc4O)s3)sc2n1`: the EC50 was over 200 µM and the IC50 amounted to 28.8 µM.

On to `COc1ccc(Cc2nnc(C)c3c(C)[nH]nc23)cc1OC`, for which the outcome was inactive.

With `CC1(C#N)N(C(=O)c2ccccc2)c2ccccc2N1C(=O)c1ccccc1`, the outcome was inactive.

As to `O=[N+]([O-])c1ccc(/C=C/C=C/C=C/C=C/c2ccc(S(=O)(=O)F)cc2Cl)c(Cl)c1`, the EC50 was over 200 µM and the IC50 stood at 186 µM.

As to `CC1=NNC(=O)C1C1C(=O)NN=C(c2c[nH]c3ccccc23)C1Br` (configuration not stated), the EC50 was over 200 µM and the IC50 was found to be 95.5 µM.

As to `Cn1c(=O)c2nc3sc4ccccc4c(=N)n3c2n(C)c1=O`, the EC50 was over 41.7 µM and the IC50 is over 41.7 µM.

With `N#C/C(=C\c1ccc(Cl)cc1)C(=O)c1ccccc1`, the EC50 is over 83.2 µM and the IC50 is over 83.2 µM.

Regarding `O=C(O/N=C1\CCCC\C1=C/c1ccccc1)c1ccc([N+](=O)[O-])cc1`, the outcome was inactive.

Consider `N=C(N)SCc1ccc2nsnc2c1`, for which the EC50 was over 309 µM and the IC50 came out at 52.5 µM.

With `CC(=O)[O-].COc1cccc(/C=N\[N-]C(=O)c2ccncc2)c1.[Cu+2].[OH3+].[OH3+].c1cnc2c(c1)ccc1cccnc12`, the EC50 was over 200 µM and the concentration for half-maximal inhibition (IC50) was found to be 61.7 µM.

With `COC(=O)C(C)NC1=C(Cl)C(=O)C(NC(C)C(=O)OC)=C(Cl)C1=O` (configuration not stated), the outcome was inactive.

On to `Cc1cccc(/C=N/NC(=S)NC2CCCCC2)n1`, for which the EC50 is over 200 µM and the IC50 came out at 10 µM.

`CC(=O)C(=Cc1ccc(Br)cc1)C(C)=O`: the EC50 is over 51.3 µM and the IC50 is 27.5 µM.

With `CCN(CC)CC(C(=O)Nc1c(C)cccc1C)/C(C)=N\NC(=O)C[N+](C)(C)C` (configuration not stated), the EC50 is over 40.7 µM and the IC50 was over 40.7 µM.

As to `O=C1OCCC1(Br)C(Br)c1ccccc1` (configuration not stated), the EC50 was over 200 µM and the IC50 was determined as 6.03 µM.

Regarding `CC(=O)C1=C(O)C2C3c4c[nH]c5cccc(c45)CC3C(C)(C)N2C1=O` (configuration not stated), the result was inactive.

As for `CC(/C=C/c1ccccc1)=Nc1ccccc1`, the EC50 was over 23.4 µM and the half-maximal inhibitory concentration (IC50) was over 23.4 µM.

With `O=C(O)c1ccc(Nc2nc3ccc(C(F)(F)F)cc3nc2C(=O)O)cc1`, the EC50 is over 200 µM and the IC50 was over 200 µM.

`COc1ccc(-n2c(Cn3nnc(-c4cccnc4)n3)nn(C3OC(COC(=O)c4ccccc4)C(OC(=O)c4ccccc4)C3OC(=O)c3ccccc3)c2=S)cc1` (configuration not stated): the EC50 was over 100 µM and the IC50 is over 100 µM.

The EC50 is the concentration at which the effect is half-maximal. Broadly, the IC50 is the concentration at which inhibition is half-maximal.
